Data on 13 compounds can be found in PubChem BioAssay (NCI).

Test systems include EKVX NSCLC; KM12 colon; OVCAR-5 ovarian; OVCAR-8 ovarian; SNB-19 CNS; SNB-75 CNS; TK-10 renal; UO-31 renal; HCT-15 colon; SF-539 CNS.
What all share (test): inhibition of tumour cell growth, NCI panel, 48 h

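How tested: cells in 96-well plates exposed to compound for 48 hours at five concentrations. Abbreviation: GI50, concentration required for 50% inhibition of growth. At the TGI there is no net growth.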

Regarding `COc1cccc2c1-c1c(c3ccc([N+](=O)[O-])cc3c(=O)n1CCCCl)C2=O`, the GI50 with EKVX NSCLC was over 50 µM; in the test with KM12 colon, over 50000 nM; in the test with OVCAR-5 ovarian, over 50 µM; with OVCAR-8 ovarian, over 50000 nM; with SNB-19 CNS it was 12.4 µM; with SNB-75 CNS, 11.6 µM. For the same compound, the GI50 is 11.8 µM with TK-10 renal and 1730 nM in the test with UO-31 renal. Moreover, the TGI in the test with EKVX NSCLC was over 50 µM; in the test on KM12 colon, over 50 µM; in the test on OVCAR-5 ovarian, over 50 µM; in the test with OVCAR-8 ovarian, over 50 µM; with SNB-19 CNS, over 50 µM; in the test with SNB-75 CNS, 32.3 µM. The TGI with TK-10 renal was 38.9 µM; with UO-31 renal, over 50 µM.
With `O=C(O)Cc1cccc2c1Oc1ccccc1S2`, the TGI with EKVX NSCLC, in the test with HCT-15 colon, in the test with KM12 colon, in the test with OVCAR-8 ovarian, with SF-539 CNS and with SNB-19 CNS was over 100 µM in each case. Further, the TGI with SNB-75 CNS, with TK-10 renal and in the test with UO-31 renal was over 100 µM in each case.
`CN=C(NC#N)NCCSCc1nc[nH]c1C`: the TGI with HCT-15 colon, in the test on KM12 colon, with OVCAR-5 ovarian, with OVCAR-8 ovarian, in the test on SF-539 CNS and in the test on SNB-19 CNS was over 100 µM throughout. Further, the TGI in the test with SNB-75 CNS is 79.3 µM; in the test on UO-31 renal it was over 100 µM.
In the case of `O=S(=O)(O)c1ccc(-c2nnc(-c3ccccn3)nc2-c2ccc(S(=O)(=O)O)o2)o1`, the TGI with EKVX NSCLC, in the test on HCT-15 colon, with KM12 colon, in the test on OVCAR-5 ovarian, in the test with OVCAR-8 ovarian and in the test on SF-539 CNS was over 100 µM in each case. For the same compound, the TGI with SNB-19 CNS, in the test with SNB-75 CNS and in the test on UO-31 renal was over 100 µM in each case.
Take `COc1c(NC(C)=O)cc(C)cc1NC(C)=O`: the TGI in the test with EKVX NSCLC, in the test on HCT-15 colon, in the test with KM12 colon, with OVCAR-8 ovarian, in the test with SF-539 CNS and in the test with SNB-75 CNS was over 100 µM throughout. In addition, the TGI with TK-10 renal is over 100 µM.
With `CCCCCCCCOC(CO)CO`, the TGI with HCT-15 colon, with OVCAR-5 ovarian, with OVCAR-8 ovarian, with SNB-19 CNS, in the test with TK-10 renal and with UO-31 renal was over 100 µM throughout.
`C1C[S][Ge]2([S]CCO1)[S]CCOCC[S]2`: the GI50 in the test on HCT-15 colon is over 100000 nM; in the test with SF-539 CNS it was over 100000 nM; with SNB-75 CNS it was 2.51 µM; in the test with UO-31 renal it was over 100000 nM. For the same compound, the TGI in the test with HCT-15 colon is over 100 µM; in the test on SF-539 CNS, over 100 µM; in the test on SNB-75 CNS it was 48.4 µM; with UO-31 renal, over 100 µM.
In the case of `Cc1c(-c2nnc(-c3ccc(Cl)cc3)o2)c(=O)n(-c2ccccc2)n1C`, the TGI with EKVX NSCLC was over 100 µM; in the test with HCT-15 colon it was over 100 µM; with KM12 colon, over 100 µM; in the test on OVCAR-8 ovarian it was over 100 µM; with SF-539 CNS it was 90.1 µM; with SNB-19 CNS it was over 100 µM. For the same compound, the TGI in the test on SNB-75 CNS, in the test with TK-10 renal and in the test on UO-31 renal was over 100 µM in each case.
For the compound `O=C1N(c2ccccc2)C(=O)C2(SC=NN2Cc2ccccc2)N1c1ccccc1` (configuration not stated), the TGI in the test with EKVX NSCLC, in the test with KM12 colon, in the test on OVCAR-8 ovarian, in the test on SF-539 CNS, in the test on SNB-19 CNS and with SNB-75 CNS was over 100 µM throughout. The TGI in the test on TK-10 renal and with UO-31 renal was over 100 µM in each case.
For the compound `CC1(C)OC(C[C@]2(C#N)C[C@H](CCl)OC(C)(C)O2)C[C@@H](C[C@]2(C#N)C[C@H](CCl)OC(C)(C)O2)O1` (some centres not stated), the TGI in the test with EKVX NSCLC, in the test with HCT-15 colon, in the test on KM12 colon, in the test with OVCAR-5 ovarian, in the test with OVCAR-8 ovarian and in the test with SF-539 CNS was over 100 µM in each case. The TGI in the test on SNB-19 CNS, in the test with SNB-75 CNS and with TK-10 renal was over 100 µM in each case.
On to `CO/N=C(\C)c1cccc(Nc2cc(-c3ccccc3)nc3c(O)cccc23)c1`, for which the GI50 in the test with EKVX NSCLC is 17.4 µM; in the test on HCT-15 colon, 3380 nM; in the test with KM12 colon, 3920 nM; in the test on OVCAR-5 ovarian it was 20.3 µM; in the test on OVCAR-8 ovarian, 5520 nM; with SF-539 CNS, 10800 nM. Further, the GI50 in the test on SNB-75 CNS was 20.5 µM; with TK-10 renal it was 6.89 µM; in the test on UO-31 renal, 4580 nM. The TGI in the test on EKVX NSCLC is 59.6 µM; in the test on HCT-15 colon, 16.9 µM; in the test with KM12 colon it was 19.1 µM; in the test with OVCAR-5 ovarian it was 60.7 µM; in the test with OVCAR-8 ovarian it was 25.9 µM; in the test with SF-539 CNS, 39.9 µM. For the same compound, the TGI in the test with SNB-75 CNS was found to be 96.2 µM; with TK-10 renal, 22.8 µM; with UO-31 renal, 60.5 µM.
For `CC(=O)c1cc2c(cc1Nc1c3ccccc3nc3occ(Cl)c13)OCO2`, the GI50 with EKVX NSCLC is 0.181 µM; in the test on HCT-15 colon, 328 nM; in the test with KM12 colon, 55.6 nM; with OVCAR-5 ovarian it was 0.616 µM; with OVCAR-8 ovarian, 205 nM; with SF-539 CNS, 30.2 nM. The GI50 is 0.601 µM with SNB-19 CNS, 0.409 µM in the test with TK-10 renal and 1090 nM in the test on UO-31 renal. Also, the TGI in the test with EKVX NSCLC is over 100 µM; in the test with KM12 colon it was 0.494 µM; in the test on OVCAR-5 ovarian it was over 100 µM; in the test on OVCAR-8 ovarian it was 0.766 µM; in the test with SF-539 CNS, 0.0998 µM; in the test on SNB-19 CNS, over 100 µM. Moreover, the TGI in the test on TK-10 renal and in the test on UO-31 renal was over 100 µM throughout.
As for `COc1ccc(-c2nn(-c3cccc(NC(=O)c4ccc5c(c4)OCCO5)c3)cc2-c2ccncc2)cc1Cl`, the GI50 was 1610 nM in the test with HCT-15 colon; 1390 nM in the test with KM12 colon; 5.19 µM in the test on OVCAR-5 ovarian; 2470 nM with OVCAR-8 ovarian; 1410 nM with SF-539 CNS; 4.63 µM in the test on SNB-19 CNS. The GI50 with SNB-75 CNS is 0.602 µM; in the test with TK-10 renal, 5.25 µM; in the test with UO-31 renal it was 2570 nM. Also, the TGI is 22.5 µM in the test on HCT-15 colon; 6.76 µM in the test on KM12 colon; 29.8 µM with OVCAR-5 ovarian; over 100 µM with OVCAR-8 ovarian; 3.48 µM in the test with SF-539 CNS; 98.1 µM in the test on SNB-19 CNS. Moreover, the values for the TGI with SNB-75 CNS, in the test on TK-10 renal and with UO-31 renal were 3.5 µM, 29.3 µM and 17.3 µM, respectively.
